One assay deals with myofibers. Put plainly: Myofiber cross-sectional area and fiber typing by immunofluorescence. The assay is classed as in vivo, mouse. The following applies: aged mice, 1 month. The procedure:
We collected and prepared recipient Tibialis anterior (TA) or gastrocnemius (GA) muscle tissues for histology as previously described (5). We fixed transverse sections from muscles using 4% PFA, blocked and permeabilized using PBS/1% BSA/0.1% Triton X-100 and incubated with anti-LAMININ (Millipore, clone A5, catalog #05-206, 1:200) and then with AlexaFluor secondary Antibodies (Jackson ImmunoResearch Laboratories, 1:200) or wheat germ agglutinin-Alexa 647 conjugate (WGA, Thermo Fisher Scientific). We counterstained nuclei with DAPI (Invitrogen).
We acquired images on a Zeiss 510 laser scanning confocal microscope (Carl Zeiss Microimaging) with 40x/0.9N.A. objective to capture multiple consecutive focal planes or using the KEYENCE BZ-X700 all-in-one fluorescence microscope (Keyence) with 20x/0.75 N.A. objectives. We analyzed the myofiber area using the Keyence Advanced Analysis Software. For cross sectional area the maximum cross sectional area of the muscle was quantified or at least 10 fields of LAMININ-stained myofiber cross-sections encompassing over 400 myofibers were captured for each mouse as above. […] The researchers performing the imaging acquisition and scoring were unaware of treatment condition given to sample groups analyzed. […]
Images were acquired using KEYENCE BZ-X700 all in one fluorescence microscope with 20x/0.75 NA. objectives and individual fields were stitched and analyzed using Keyence Advanced Analysis Software.
For cultured myotubes we performed fixation using 4% PFA, blocking and permeabilization using PBS/1% BSA/0.1% Triton X-100 and staining with primary antibodies anti-MYH (Thermo Fisher Scientific, catalog #14-6503-82, clone MF-20, 1:500) and then with AlexaFluor secondary Antibodies (Jackson ImmunoResearch Laboratories, 1:500). […] We acquired images using the KEYENCE BZ-X700 all-in-one fluorescence microscope (Keyence) with 20x/0.75 N.A. objectives. We analyzed the fiber area using the Keyence Advanced Analysis Software. […] The researchers performing the imaging acquisition and scoring were unaware of treatment condition given to sample groups analyzed.

In another assay the test system is myotubes. As to the kind of experiment: Differentiated (starved) cultured myotubes: Atrogin1 expression and diameter. It is filed as cell-based, mouse. The conditions noted are these: starved (24 hr) or non-starved myotubes; PGE2 10 ng/ml, SW 1 μM; listed as SW. The procedure:
For myotubes we performed fixation using 4% PFA, blocking and permeabilization using PBS/1% BSA/0.1% Triton X-100 and staining with primary antibodies anti-MyHC (Thermo Fisher Scientific, catalog #14-6503-82, clone MF-20, 1:500) and then with AlexaFluor secondary Antibodies (Jackson ImmunoResearch Laboratories, 1:500). We counterstained nuclei with DAPI (Invitrogen).
Primary myoblasts were grown in myogenic cell culture medium containing DMEM/F10 (50:50), 15% FBS, 2.5 ng ml-1 fibroblast growth factor-2 and 1% penicillin-streptomycin. For differentiation experiments, confluent myoblasts were grown in medium containing 5% horse serum, DMEM. […] Myoblasts were isolated from EP4^fl/fl mice and received either a mCherry/Cre lentivirus or a mock infection as previously described (5).
For cultured myotubes we performed fixation using 4% PFA, blocking and permeabilization using PBS/1% BSA/0.1% Triton X-100 and staining with primary antibodies anti-MYH (Thermo Fisher Scientific, catalog #14-6503-82, clone MF-20, 1:500) and then with AlexaFluor secondary Antibodies (Jackson ImmunoResearch Laboratories, 1:500). We counterstained nuclei with DAPI (Invitrogen). We acquired images using the KEYENCE BZ-X700 all-in-one fluorescence microscope (Keyence) with 20x/0.75 N.A. objectives. We analyzed the fiber area using the Keyence Advanced Analysis Software. For fiber area the entire maximum cross-sectional area of the muscle was quantified or at least 10 fields of LAMININ or WGA stained myofiber cross-sections encompassing over 400 myofibers were captured for each mouse as above. For fiber typing analysis, the MATLAB application SMASH-Semi-Automatic Muscle Analysis Using Segmentation of Histology, was used as previously described (12). Data analyses were blinded. The researchers performing the imaging acquisition and scoring were unaware of treatment condition given to sample groups analyzed.
Primary murine myoblasts were grown in myogenic cell culture medium containing DMEM/F10 (50:50), 15% FBS, 2.5 ng ml^−1 fibroblast growth factor-2 and 1% penicillin-streptomycin. […] For differentiation experiments, confluent myoblasts were grown in medium containing 5% horse serum, DMEM.

Entries after “also recorded” stand apart in the source; their conditions may differ.

For `CCCC[S+]([O-])c1sc2nc(-c3cccs3)cc(-c3ccccc3)c2c1N` (stereo not shown) [SW033291, 2-(butylsulfinyl)-4-phenyl-6-(thiophen-2-yl)thieno[2,3-b]pyridin-3-amine], in the assay with myofibers, the “cross-sectional area of glycolytic (type IIb) fibers” value is “increase” and the “cross-sectional area of oxidative (type IIa) fibers” value is listed as “increase”. The myofiber cross-sectional area entry with myofibers (daily i.p., listed as SW) is “larger; also recorded: significantly augmented”. In addition, the myotube diameter result in the assay with myotubes is given as “no increase; also recorded: no effect”.

Source of the values: patent US20220304992A1, “METHODS OF REJUVENATING AGED TISSUE BY INHIBITING 15-HYDROXYPROSTAGLANDIN DEHYDROGENASE (15-PGDH)” (The Board of Trustees of the Leland Stanford Junior …, priority 2019, published 2022).
